Where two headings read alike, the source gives them in different places.
What was measured:
Assay type in all cases: cell-based
[1] = tested on: CD34^+ hematopoietic stem/progenitor cells; test: Hematologic toxicity of compounds (CD34+ HSC viability, CTG); settings: 240 h; cytotoxic drugs; treatment for 10 days; CTG cell viability
Procedure: Experimental objective: The effects of cytotoxic drugs on the differentiation and development of CD34^+ hematopoietic stem/progenitor cells into the megakaryocytic lineage were investigated, so as to evaluate their potential hematologic toxicity of causing thrombocytopenia.
Experimental design: After resuscitation, bone marrow-mobilized peripheral blood-derived HSCs were seeded at 2000 cells/well/180 µL in an ultra-low attachment 96-well round-bottom plate and stabilized for 4 h. The cells were treated with compounds by performing a 5-fold gradient dilution starting from the highest dose of 1 µM, resulting in a total of 9 concentration points, and this treatment was maintained continuously for 10 days. Cell viability was detected using the CTG reagent (CellTiter-Glo luminescent cell viability detection kit, manufacturer: Promega, Cat. No.: G7571). Table 2. Hematologic toxicity test results of cytotoxic drugs

[2] = tested on: human breast cancer cells MDA-MB-468; test: Cytotoxicity test for compounds (CellTiter-Glo cell proliferation inhibition); settings: Homo sapiens, MDA-MB-468, 72 h
Procedure: (§1) Biological Test Example 1: Cytotoxicity Test for Compounds
(§2) • 96-well clear flat-bottom white plate (Corning, #3610) • RPMI1640 culture medium (Gibco, #A10491-01) • Fetal Bovine Serum (Sigma-Aldrich, #F8687-500ML) • CellTiter-Glo® Luminescent Cell Viability Assay (Promega, # G7572/G7571)
(§3) Human gastric cancer cells NCI-N87 (ATCC, Cat. No.: CRL-5822), human breast cancer cells MDA-MB-468 (Cell Bank of the Committee for Type Culture Collection of the Chinese Academy of Sciences, Cat. No.: TCHu136), and human breast cancer cells KPL-4 (Nanjing Cobioer Biosciences Co., Ltd., Cat. No.: CBP60379) were washed with PBS and digested with 0.25% Trypsin-EDTA trypsin for about 3-10 min. The digestion was terminated with a complete cell culture medium. The cells were centrifuged at 1000 rpm for 5 min, and the supernatant was discarded. The cells were resuspended in a complete cell culture medium. The cell number was counted using a cell counter, and the cells were adjusted to the desired density. 90.0 µL of the cell suspension was added to each well at 3000 cells/well. The cell plate was incubated in a cell incubator at 37°C with 5% CO2 overnight.
(§4) In the experiment, a DMSO control group and test sample groups were set. The cell plate was removed from the incubator to observe cell adherence. After the cells adhered, 10.00 µL of the sample (starting from a final concentration of 10 µM, 5-fold dilution, 9 concentrations) was added to each well. After the mixture was gently shaken uniformly, the plate was incubated in the incubator.
(§5) After 3 days of incubation, 100.0 µL/well of CellTiter-Glo™ (Promega, Cat. No.: G7572/G7571) working solution was added. The plate was shaken on a thermostatic shaker to lyse the cells. After 10 min, the plate was read on a microplate reader.
(§6) Data analysis: GraphPad Prism 8.0 software was used to plot a graph with the Log value of the sample concentration as the abscissa and the Inhibition% as the ordinate. The data were analyzed by Nonlinear regression (curve fit) to obtain the IC50 value of each test sample. Table 1. Inhibition activity of compounds of the present disclosure on cell proliferation

[3] = tested on: Human gastric cancer cells NCI-N87; test: as above; settings: Homo sapiens, NCI-N87, 72 h
Procedure: as §1, §2, §3, §4, §5, §6

[4] = tested on: human breast cancer cells KPL-4; test: as above; settings: Homo sapiens, KPL4, 72 h
Procedure: as §1, §2, §3, §4, §5, §6

[5] = 3 days of incubation, CellTiter-Glo, read-out: MDA-MD-468/IC50
[6] = 3 days of incubation, CellTiter-Glo, read-out: NCI-87/IC50
[7] = 3 days of incubation, CellTiter-Glo, read-out: KPL-4/IC50

| Compound | IC50 [1] [nM] | IC50 [2, 5] [nM] | IC50 [3, 6] [nM] | IC50 [4, 7] [nM] | IC50 ([2]; read-out: MDA-MD-468/IC50 (nM)) [nM] | IC50 ([3]; read-out: NCI-87/IC50 (nM)) [nM] | IC50 ([4]; read-out: KPL-4/IC50 (nM)) [nM] |
| --- | --- | --- | --- | --- | --- | --- | --- |
| CC[C@H](C)[C@@H]([C@@H](CC(=O)N1CCC[C@H]1[C@H](OC)[C@@H](C)C(=O)N(CCc1cccc(N)c1)OC)OC)N(C)C(=O)[C@@H](NC(=O)[C@H](C(C)C)N(C)C)C(C)C [Example 7, (S)-N-((3R,4S,5S)-1-((S)-2-((1R,2R)-3-((3-aminophenethyl)(methoxy)amino)-1-methoxy-2-methyl-3-oxopropyl)pyrrolidin-1-yl)-3-methoxy-5-methyl-1-oxoheptan-4-yl)-2-((S)-2-(dimethylamino)-3-methylbutanamido)-N,3-dimethylbutanamide] | 0.144 | 13.4 | 0.89 | 0.45 |  |  |  |
| CC[C@H](C)[C@@H]([C@@H](CC(=O)N1CCC[C@H]1[C@H](OC)[C@@H](C)C(=O)N(C)CCc1cccc(N)c1)OC)N(C)C(=O)[C@@H](NC(=O)[C@H](C(C)C)N(C)C)C(C)C [WO2023081230A1 Compound 1, reference compound] | 0.017 |  |  |  |  |  |  |
| CC[C@H](C)[C@@H]([C@@H](CC(=O)N1CCC[C@H]1[C@H](OC)[C@@H](C)C(=O)N1CCSC(c2cccc(N)c2)C1)OC)N(C)C(=O)[C@@H](NC(=O)[C@H](C(C)C)N(C)C)C(C)C (single isomer, unassigned) [Example 60-P2] |  | 1.01 | 0.71 | 0.6 |  |  |  |
| C=CCN(C(=O)[C@H](C)[C@@H](OC)[C@@H]1CCCN1C(=O)C[C@@H](OC)[C@H]([C@@H](C)CC)N(C)C(=O)[C@@H](NC(=O)[C@H](C(C)C)N(C)C)C(C)C)[C@H](CC#N)Cc1cccc(N)c1 [Example 10, (S)-N-((3R,4S,5S)-1-((S)-2-((1R,2R)-3-(allyl((S)-1-(3-aminophenyl)-3-cyanopropan-2-yl)amino)-1-methoxy-2-methyl-3-oxopropyl)pyrrolidin-1-yl)-3-methoxy-5-methyl-1-oxoheptan-4-yl)-2-((S)-2-(dimethylamino)-3-methylbutanamido)-N,3-dimethylbutanamide] |  | 1.97 | 3.35 | 1.25 |  |  |  |
| C#CCN(CCc1cccc(N)c1)C(=O)[C@H](C)[C@@H](OC)[C@@H]1CCCN1C(=O)C[C@@H](OC)[C@H]([C@@H](C)CC)N(C)C(=O)[C@@H](NC(=O)[C@H](C(C)C)N(C)C)C(C)C [Example 6, (S)-N-((3R,4S,5S)-1-((S)-2-((1R,2R)-3-((3-aminophenethyl)(prop-2-yn-1-yl)amino)-1-methoxy-2-methyl-3-oxopropyl)pyrrolidin-1-yl)-3-methoxy-5-methyl-1-oxoheptan-4-yl)-2-((S)-2-(dimethylamino)-3-methylbutanamido)-N,3-dimethylbutanamide] | 3.96 | 12.6 | 3.93 | 2.96 |  |  |  |
| C=CC(Cc1cccc(N)c1)OC(=O)[C@H](C)[C@@H](OC)[C@@H]1CCCN1C(=O)C[C@@H](OC)[C@H]([C@@H](C)CC)N(C)C(=O)[C@@H](NC(=O)[C@H](C(C)C)N(C)C)C(C)C (stereo partly drawn) [Example 19] |  |  |  |  | < 0.0256 | < 0.0256 | < 0.0256 |
| CC[C@H](C)[C@@H]([C@@H](CC(=O)N1CCC[C@H]1[C@H](OC)[C@@H](C)C(=O)O[C@@H](Cc1cccc(N)c1)C(F)F)OC)N(C)C(=O)[C@@H](NC(=O)[C@H](C(C)C)N(C)C)C(C)C [Example 25] |  |  |  |  | < 0.0256 | < 0.0256 | < 0.0256 |
| CC[C@H](C)[C@@H]([C@@H](CC(=O)N1CCC[C@H]1[C@H](OC)[C@@H](C)C(=O)N(CC#N)CCc1cccc(N)c1)OC)N(C)C(=O)[C@@H](NC(=O)[C@H](C(C)C)N(C)C)C(C)C [Example 45, (S)-N-((3R,4S,5S)-1-((S)-2-((1R,2R)-3-((3-aminophenethyl)(cyanomethyl)amino)-1-methoxy-2-methyl-3-oxopropyl)pyrrolidin-1-yl)-3-methoxy-5-methyl-1-oxoheptan-4-yl)-2-((S)-2-(dimethylamino)-3-methylbutanamido)-N,3-dimethylbutanamide] | 0.235 |  | 2.21 | 0.65 |  |  |  |
| CC[C@H](C)[C@@H]([C@@H](CC(=O)N1CCC[C@H]1[C@H](OC)[C@@H](C)C(=O)O[C@H](CC#N)Cc1cccc(N)c1)OC)N(C)C(=O)[C@@H](NC(=O)[C@H](C(C)C)N(C)C)C(C)C [Example 9, (S)-1-(3-aminophenyl)-3-cyanopropan-2-yl (2R,3R)-3-((S)-1-((3R,4S,5S)-4-((S)-2-((S)-2-(dimethylamino)-3-methylbutanamido)-N,3-dimethylbutanamido)-3-methoxy-5-methylheptanoyl)pyrrolidin-2-yl)-3-methoxy-2-methylpropanoate] |  | 3.34 | 3.84 | 0.74 |  |  |  |
